Columns and labels:
Format in all cases: in vivo
Lamium purpureum = assay: Field trial post-emergence in maize: LAMPU
Description: (§1) Herbicidal activity of herbicide compositions according to the first aspect of the present invention with regard to different types of unwanted vegetation was determined during trials performed on test fields (field trials). Individual compositions comprising pyridate and individual compositions comprising a defined 4-HPPD inhibitor are compared with a herbicide composition according to the invention comprising both pyridate and a defined 4-HPPD inhibitor. The expected activity of the combination of the active compounds pyridate and a defined 4-HPPD inhibitor is calculated according to above mentioned calculation method by Colby, in order to evaluate a synergistic effect between pyridate and a defined 4-HPPD inhibitor.
(§2) Herbicidal activity was determined by applying herbicide compositions on emerged unwanted vegetation on fields where maize was cultivated. Pyridate and a defined 4-HPPD inhibitor were applied as a tank mixture by mixing these active compounds prior to use in a spray tank. The corresponding mixture was in the form of a spray liquor. Besides, spray liquors of individual compositions comprising pyridate and of individual compositions comprising a defined 4-HPPD inhibitor were used. Test plants of unwanted vegetation with a growth stage corresponding to BBCH 10-18 (according to the extended BBCH-scale) were sprayed with the active compound preparations such that particular desired amounts of active compounds are applied per unit area. Spray liquor was diluted with water to arrive at an application volume of 50 to 450 L/ha. At a specified number of days after application (DAA), the degree of damage to the unwanted vegetation is rated in % of plants of unwanted vegetation that were killed, which was assessed by visually controlling the plants.
(§3) Example 1 concerns a herbicide composition comprising a combination of pyridate and mesotrione, which was applied post-emergence on unwanted vegetation on a field where maize was cultivated, according to the test conditions mentioned above.

Fallopia convolvulus = assay: Field trial post-emergence in maize: POLCO
Description: as §1, §2

Matricaria chamomilla = assay: Field trial post-emergence in maize: MATCH
Description: as §1, §2, §3

Brassica napus (winter) = assay: Field trial post-emergence in maize: BRSNW; conditions: # = 1, g a.c./ha: PYR 300, MES 100, PYR + MES 300 + 90
Description: as §1, §2

Papaver rhoeas = assay: Field trial post-emergence in maize: PAPRH; conditions: # = 1, g a.c./ha: PYR 300, MES 100, PYR + MES 300 + 90
Description: as §1, §2

Abutilon theophrasti = assay: Field trial post-emergence in maize: ABUTH; conditions: 31-48 DAA; # = 2; g a.c./ha: PYR 300, MES 100, PYR + MES 300 + 90
Description: as §1
Herbicidal activity was determined by applying herbicide compositions on emerged unwanted vegetation on fields where maize was cultivated. Pyridate and a defined 4-HPPD inhibitor were applied as a tank mixture by mixing these active compounds prior to use in a spray tank. The corresponding mixture was in the form of a spray liquor. […] At a specified number of days after application (DAA), the degree of damage to the unwanted vegetation is rated in % of plants of unwanted vegetation that were killed, which was assessed by visually controlling the plants.

Digitaria sanguinalis = assay: Field trial post-emergence in maize: DIGSA; conditions: g a.c./ha: PYR 300, MES 100, PYR + MES 300 + 90
Description: as §1, §2

Poa annua = assay: Examples 6-8 herbicidal effect: POAAN; conditions: 7 DAA
Portulaca oleracea = assay: Field trial post-emergence in maize: POROL; conditions: # = 1, g a.c./ha: PYR 300, MES 100, PYR + MES 300 + 90
Description: as §1, §2

Echinochloa crus-galli = assay: Examples 6-8 herbicidal effect: ECHCG; conditions: 7 DAA
Solanum nigrum = assay: Examples 6-8 herbicidal effect: SOLNI; conditions: 7 DAA
Stellaria media = assay: Field trial post-emergence in maize: STEME
Description: as §1, §2

[1] = system: unwanted vegetation (UVEG); assay: Field trials Examples 1-5 (incl. Table 1), post-emergence on unwanted vegetation in maize; conditions: 14-20 DAA
Description: as §1, §2

[2] = g a.c./ha: MES 50, PYR + SMO 300 + 800
[3] = g a.c./ha: MES 80, PYR + MES 300 + 50

For `CS(=O)(=O)c1ccc(C(=O)C2C(=O)CCCC2=O)c([N+](=O)[O-])c1` [MES, 2-(4-methylsulfonyl-2-nitrobenzoyl) cyclohexane-1,3-dione], the MES h.e. (Lamium purpureum; LAMPU 14-20 DAA 45 g a.c./ha) was 93%, the MES h.e. (Lamium purpureum; LAMPU 14-20 DAA 90 g a.c./ha) was 98% and the MES h.e. (Lamium purpureum; LAMPU 14-20 DAA 135 g a.c./ha) was 99%. For the same compound, the MES h.e. (Lamium purpureum; LAMPU 24-31 DAA 45 g a.c./ha) was 89%, the MES h.e. (Lamium purpureum; LAMPU 24-31 DAA 90 g a.c./ha) was 95% and the “herbicidal effect (h.e.)” value (Fallopia convolvulus; 7-14 DAA, # = 5, g a.c./ha: PYR 300, MES 100, PYR + MES 300 + 90) was 68%. For the same compound, the “herbicidal effect (h.e.)” value (Fallopia convolvulus; 13-14 DAA, # = 1, g a.c./ha: PYR 450, MES 144, PYR + MES 450 + 144) was 92%, the “herbicidal effect (h.e.)” value (Fallopia convolvulus; 18-28 DAA, # = 8, g a.c./ha: PYR 300, MES 100, PYR + MES 300 + 90) was 77% and the “herbicidal effect (h.e.)” value (Fallopia convolvulus; 31-48 DAA, # = 8, g a.c./ha: PYR 300, MES 100, PYR + MES 300 + 90) was 68%. It also gave an MES h.e. (Fallopia convolvulus; POLCO 14-20 DAA 45 g a.c./ha) of 77%, an MES h.e. (Fallopia convolvulus; POLCO 14-20 DAA 90 g a.c./ha) of 89% and an MES h.e. (Fallopia convolvulus; POLCO 24-31 DAA 45 g a.c./ha) of 80%. The MES h.e. (Fallopia convolvulus; POLCO 24-31 DAA 135 g a.c./ha) was 97%, the MES h.e. (Matricaria chamomilla; MATCH 14-20 DAA 45 g a.c./ha) was 53% and the MES h.e. (Matricaria chamomilla; MATCH 14-20 DAA 90 g a.c./ha) was 72%. It also gave an MES h.e. (Matricaria chamomilla; MATCH 14-20 DAA 135 g a.c./ha) of 81%, an MES h.e. (Matricaria chamomilla; MATCH 24-31 DAA 45 g a.c./ha) of 43% and an MES h.e. (Matricaria chamomilla; MATCH 24-31 DAA 90 g a.c./ha) of 77%. The MES h.e. (Matricaria chamomilla; MATCH 24-31 DAA 135 g a.c./ha) was 93%, the “herbicidal effect (h.e.)” value (Brassica napus (winter); 7-14 DAA) was 98% and the “herbicidal effect (h.e.)” value (Brassica napus (winter); 18-28 DAA) was 99%. For the same compound, the “herbicidal effect (h.e.)” value (Papaver rhoeas; 18-28 DAA) was 80%, the “herbicidal effect (h.e.)” value (Papaver rhoeas; 31-48 DAA) was 89% and the “herbicidal effect (h.e.)” value (Abutilon theophrasti) was 91%. The “herbicidal effect (h.e.)” value (Digitaria sanguinalis; 7-14 DAA, # = 2) was 53%, the “herbicidal effect (h.e.)” value (Digitaria sanguinalis; 18-28 DAA, # = 2) was 47% and the “herbicidal effect (h.e.)” value (Digitaria sanguinalis; 31-48 DAA, # = 1) was 54%. For the same compound, the “herbicidal effect (h.e.)” value (Poa annua; [2]) was 0%, the “herbicidal effect (h.e.)” value (Poa annua; [3]) was 3% and the “herbicidal effect (h.e.)” value (Portulaca oleracea; 7-14 DAA) was 50%. For the same compound, the “herbicidal effect (h.e.)” value (Portulaca oleracea; 18-28 DAA) was 5%, the “herbicidal effect (h.e.)” value (Echinochloa crus-galli; [2]) was 70% and the “herbicidal effect (h.e.)” value (Echinochloa crus-galli; [3]) was 73%. The “herbicidal effect (h.e.)” value (Solanum nigrum; [2]) was 67%, the “herbicidal effect (h.e.)” value (Solanum nigrum; [3]) was 54% and the “herbicidal effect (h.e.)” value (Stellaria media; 18-28 DAA, # = 4, g a.c./ha: PYR 300, MES 100, PYR + MES 300 + 90) was 98%. For the same compound, the MES h.e. (Stellaria media; STEME 14-20 DAA 45 g a.c./ha) was 78%, the MES h.e. (Stellaria media; STEME 14-20 DAA 90 g a.c./ha) was 93% and the MES h.e. (Stellaria media; STEME 14-20 DAA 135 g a.c./ha) was 93%. The MES h.e. (Stellaria media; STEME 24-31 DAA 45 g a.c./ha) was 70%, the MES h.e. (Stellaria media; STEME 24-31 DAA 90 g a.c./ha) was 87% and the MES h.e. (Stellaria media; STEME 24-31 DAA 135 g a.c./ha) was 93%. For the same compound, the “MES h.e. (%)” value ([1]; VIOAR (Viola arvensis), # = 3, first VIOAR block (r259-264), MES 135 g a.c./ha) was 98%, the “MES h.e. (%)” value ([1]; VIOAR, # = 3, second VIOAR block (r265-272), MES 45 g a.c./ha) was 70% and the “MES h.e. (%)” value ([1]; VIOAR, # = 3, second VIOAR block (r265-272), MES 90 g a.c./ha) was 84%. The “MES h.e. (%)” value ([1]; VIOAR, # = 3, second VIOAR block (r265-272), MES 135 g a.c./ha) was 87%.

Reference: US12396459B2, “Synergistically effective herbicide composition comprising pyridate and at least one defined 4-HPPD inhibitor” (BELCHIM CROP PROTECTION NV, priority 2018, dated 2025)
